According to patent US20200163984A1, “USE OF ISOVALERYL SPIRAMYCIN I, II AND/OR III IN MANUFACTURING MEDICAMENT FOR TREATING AND/OR PREVENTING TUMOR, AND MEDICAMENT” (SHENYANG FUYANG PHARMACEUTICAL TECHNOLOGY CO., LTD., priority 2017, published 2020):

Key:
[1] = system: transplanted tumor of human lymphoma cell U937; assay: U937 transplanted tumor in nude mice
Protocol: (§1) U937 cells in a logarithmic growth phase were taken and subjected to a trypan blue exclusion experiment showing that the cell viability was more than 95%, then the cells were subjected to trypsinization, centrifugation, and supernatant removal. Then cell concentration was adjusted to 1×10^7/ml with matrigel, then each nude mouse was inoculated subcutaneously with 0.2 ml of cells at its right armpit and recorded as the first day of inoculation. When the tumor grows to be greater than or equal to 100 mm^3, the mice were randomly divided into 11 groups with 6 mice in each group: a model group, a cyclophosphamide group, isovaleryl spiramycin I groups with doses of 25, 50 and 100 mg/kg, isovaleryl spiramycin II groups with doses of 25, 50 and 100 mg/kg, and isovaleryl spiramycin III groups with doses of 25, 50 and 100 mg/kg. Each group was continuously administered intragastrically for 30 days with a dose of 20 ml/kg. The mice were sacrificed the next day after drug withdrawal and the indicators were tested. The long diameter and short diameter of the tumor, and the body weight of each mouse were recorded every 3 days from drug administration to nude mouse sacrifice.
(§2) The body weight of the nude mice and the long diameter (a) and short diameter (b) of the transplanted tumor were measured every 3 days, and the tumor volume (v), relative tumor volume (RTV) and relative tumor proliferation rate (T/C) are calculated respectively according to the following formulas, wherein V=a×b^2/2; RTV=V/V0 (V0 is the tumor volume before administration, V is the tumor volume before sacrifice), and T/C (%)=treatment group RTV/model control group RTV×100%.
(§3) Each mouse was weighed and sacrificed. After the tumor was completely stripped off from the body of the mouse, the non-tumor tissues such as blood stains and fat were removed to weigh the tumor and calculate the tumor growth inhibition rate. The average tumor weight of each group of mice is used as an indicator of efficacy. Tumor growth inhibition rate (%)=(1−the average tumor weight of the treatment group/the average tumor weight of the model group)×100%.

[2] = system: transplanted tumor of human renal cell adenocarcinoma cell 769-P; assay: 769-P transplanted tumor in nude mice
Protocol: as §1, with “Then” for “U937 cells in a logarithmic growth phase were taken and subjected to a trypan blue exclusion experiment showing that the cell viability was more than 95%, then the cells were subjected to trypsinization, centrifugation, and supernatant removal. Then”, “the” for “the body”
as §2, §3

[3] = Thymus index and spleen index of H22 liver cancer tumor-bearing mice
Protocol: In the H22 liver cancer model, the mice inoculated with the tumor were randomly divided into groups with 10 mice in each group on the next day of inoculation. The groups included: a model control group, a positive drug cyclophosphamide control group (CTX, 26 mg/kg), isovaleryl spiramycin I groups with doses of 13, 26 and 52 mg/kg; isovaleryl spiramycin II groups with doses of 13, 26 and 52 mg/kg; isovaleryl spiramycin III groups with doses of 13, 26 and 52 mg/kg. Each group was continuously administered intragastrically for 7 days with a dose of 20 ml/kg.

[4] = U937, high dose (100 mg/kg in method) i.g. 30 days
[5] = U937, low dose (25 mg/kg in method) i.g. 30 days
[6] = U937, medium dose (50 mg/kg in method) i.g. 30 days
[7] = 769-P, high dose (100 mg/kg in method) i.g. 30 days
[8] = 769-P, low dose (25 mg/kg in method) i.g. 30 days
[9] = 769-P, medium dose (50 mg/kg in method) i.g. 30 days

O=P1(N(CCCl)CCCl)NCCCO1 (centres unmarked) [Cyclophosphamide, cyclophosphamide, reference compound]
Inhibition Rate (%) ([1]; U937 nude mice, 30 mg/kg): 65.11%
Relative Tumor Proliferation Rate (T/C) ([1]; U937 nude mice, 30 mg/kg): 35.44%
Relative Tumor Volume (RTV) ([1]; U937 nude mice, 30 mg/kg): 6.04 ± 1.26
Tumor Weight ([1]; U937 nude mice, 30 mg/kg): 0.68 ± 0.12 g
Body Weight (g) (d1) ([1]; U937 nude mice, 30 mg/kg, d1): 21.00 ± 0.72 g
Tumor Volume (mm3) (d 1) ([1]; U937 nude mice, 30 mg/kg, d1): 125.00 ± 32.61 mm3
Body Weight (g) (d30) ([1]; U937 nude mice, 30 mg/kg, d30): 19.72 ± 0.95 g
Tumor Volume (mm3) (d30) ([1]; U937 nude mice, 30 mg/kg, d30): 722.72 ± 55.32 mm3
Inhibition Rate (%) ([2]; 769-P nude mice, 30 mg/kg): 70.52%
Relative Tumor Proliferation Rate (T/C) ([2]; 769-P nude mice, 30 mg/kg): 35.34%
Relative Tumor Volume (RTV) ([2]; 769-P nude mice, 30 mg/kg): 6.52 ± 0.90
Tumor Weight ([2]; 769-P nude mice, 30 mg/kg): 0.6 ± 0.03 g
Body Weight (g) (d1) ([2]; 769-P nude mice, 30 mg/kg, d1): 21.61 ± 1.00 g
Tumor Volume (mm3) (d 1) ([2]; 769-P nude mice, 30 mg/kg, d1): 107.92 ± 15.94 mm3
Body Weight (g) (d30) ([2]; 769-P nude mice, 30 mg/kg, d30): 21.58 ± 0.81 g
Tumor Volume (mm3) (d30) ([2]; 769-P nude mice, 30 mg/kg, d30): 704.00 ± 45.50 mm3
thymus index and spleen index compared with the control group ([3]; H22 tumor-bearing mice, cyclophosphamide, P<0.01): significantly lower
Spleen Index (%) ([3]; dose 26 mg/kg): 0.38 ± 0.09 %
Thymus Index (%) ([3]; dose 26 mg/kg): 0.04 ± 0.02 %

CO[C@@H]1[C@@H](O[C@@H]2O[C@H](C)[C@@H](O[C@H]3C[C@@](C)(O)[C@@H](OC(=O)CC(C)C)[C@H](C)O3)[C@H](N(C)C)[C@H]2O)[C@@H](CC=O)C[C@@H](C)[C@@H](O[C@H]2CC[C@H](N(C)C)[C@@H](C)O2)/C=C/C=C/C[C@@H](C)OC(=O)C[C@H]1O [Isovaleryl spiramycin I, isovaleryl spiramycin I]
Relative Tumor Proliferation Rate (T/C) [1, 4]: 35.25%
tumor growth inhibition rate [1, 4]: 65.03%
Relative Tumor Proliferation Rate (T/C) [1, 5]: 68.65%
tumor growth inhibition rate [1, 5]: 41.73%
tumor volume and relative tumor volume compared with the model group ([1]; U937, low, medium and high doses, P<0.05): significantly lower
Relative Tumor Proliferation Rate (T/C) [1, 6]: 39.74%
tumor growth inhibition rate [1, 6]: 50.73%
Inhibition Rate (%) ([1]; U937 nude mice, 12.5 mg/kg): 41.73%
Relative Tumor Proliferation Rate (T/C) ([1]; U937 nude mice, 12.5 mg/kg): 68.65%
Relative Tumor Volume (RTV) ([1]; U937 nude mice, 12.5 mg/kg): 11.70 ± 3.59
Tumor Weight ([1]; U937 nude mice, 12.5 mg/kg): 1.13 ± 0.60 g
Tumor Volume (mm3) (d 1) ([1]; U937 nude mice, 12.5 mg/kg, d1): 108.43 ± 6.49 mm3
Tumor Volume (mm3) (d30) ([1]; U937 nude mice, 12.5 mg/kg, d30): 1270.43 ± 435.28 mm3
Inhibition Rate (%) ([1]; U937 nude mice, 25 mg/kg): 50.73%
Relative Tumor Proliferation Rate (T/C) ([1]; U937 nude mice, 25 mg/kg): 39.74%
Relative Tumor Volume (RTV) ([1]; U937 nude mice, 25 mg/kg): 6.77 ± 0.57
Tumor Weight ([1]; U937 nude mice, 25 mg/kg): 0.95 ± 0.42 g
Tumor Volume (mm3) (d 1) ([1]; U937 nude mice, 25 mg/kg, d1): 108.61 ± 9.06 mm3
Tumor Volume (mm3) (d30) ([1]; U937 nude mice, 25 mg/kg, d30): 734.22 ± 76.87 mm3
Inhibition Rate (%) ([1]; U937 nude mice, 50 mg/kg): 65.03%
Relative Tumor Proliferation Rate (T/C) ([1]; U937 nude mice, 50 mg/kg): 35.25%
Relative Tumor Volume (RTV) ([1]; U937 nude mice, 50 mg/kg): 6.01 ± 2.26
Tumor Weight ([1]; U937 nude mice, 50 mg/kg): 0.68 ± 0.09 g
Tumor Volume (mm3) (d 1) ([1]; U937 nude mice, 50 mg/kg, d1): 109.98 ± 5.88 mm3
Tumor Volume (mm3) (d30) ([1]; U937 nude mice, 50 mg/kg, d30): 660.17 ± 37.49 mm3
mouse weight compared with the model group ([1]; mouse, in vivo): no significant changes
Body Weight (g) (d1) ([1]; mouse, in vivo, 12.5 mg/kg): 21.19 ± 0.66 g
Body Weight (g) (d30) ([1]; mouse, in vivo, 12.5 mg/kg): 21.16 ± 0.74 g
Body Weight (g) (d1) ([1]; mouse, in vivo, 25 mg/kg): 21.28 ± 0.52 g
Body Weight (g) (d30) ([1]; mouse, in vivo, 25 mg/kg): 21.01 ± 0.68 g
Body Weight (g) (d1) ([1]; mouse, in vivo, 50 mg/kg): 20.64 ± 0.39 g
Body Weight (g) (d30) ([1]; mouse, in vivo, 50 mg/kg): 20.94 ± 0.77 g
Inhibition Rate (%) ([2]; 769-P nude mice, 25 mg/kg): 33.68%
Relative Tumor Proliferation Rate (T/C) ([2]; 769-P nude mice, 25 mg/kg): 75.78%
Relative Tumor Volume (RTV) ([2]; 769-P nude mice, 25 mg/kg): 13.99 ± 3.52
Tumor Weight ([2]; 769-P nude mice, 25 mg/kg): 1.37 ± 0.55 g
Tumor Volume (mm3) (d 1) ([2]; 769-P nude mice, 25 mg/kg, d1): 106.47 ± 6.86 mm3
Tumor Volume (mm3) (d30) ([2]; 769-P nude mice, 25 mg/kg, d30): 1489.03 ± 450.17 mm3
Inhibition Rate (%) ([2]; 769-P nude mice, 50 mg/kg): 47.33%
Relative Tumor Proliferation Rate (T/C) ([2]; 769-P nude mice, 50 mg/kg): 57.12%
Relative Tumor Volume (RTV) ([2]; 769-P nude mice, 50 mg/kg): 10.54 ± 2.65
Tumor Weight ([2]; 769-P nude mice, 50 mg/kg): 1.09 ± 0.48 g
Tumor Volume (mm3) (d 1) ([2]; 769-P nude mice, 50 mg/kg, d1): 96.82 ± 8.51 mm3
Tumor Volume (mm3) (d30) ([2]; 769-P nude mice, 50 mg/kg, d30): 1020.75 ± 282.92 mm3
Inhibition Rate (%) ([2]; 769-P nude mice, 100 mg/kg): 68.82%
Relative Tumor Proliferation Rate (T/C) ([2]; 769-P nude mice, 100 mg/kg): 36.88%
Relative Tumor Volume (RTV) ([2]; 769-P nude mice, 100 mg/kg): 6.81 ± 0.30
Tumor Weight ([2]; 769-P nude mice, 100 mg/kg): 0.64 ± 0.01 g
Tumor Volume (mm3) (d 1) ([2]; 769-P nude mice, 100 mg/kg, d1): 103.26 ± 9.71 mm3
Tumor Volume (mm3) (d30) ([2]; 769-P nude mice, 100 mg/kg, d30): 702.74 ± 37.66 mm3
Relative Tumor Proliferation Rate (T/C) [2, 7]: 36.88%
tumor growth inhibition rate [2, 7]: 68.82%
Relative Tumor Proliferation Rate (T/C) [2, 8]: 75.78%
tumor growth inhibition rate [2, 8]: 33.68%
tumor volume and relative tumor volume compared with the model group ([2]; 769-P, low, medium and high doses, P<0.05): significantly lower
Relative Tumor Proliferation Rate (T/C) [2, 9]: 57.12%
tumor growth inhibition rate [2, 9]: 47.33%
mouse weight compared with the model group ([2]; mouse, in vivo): no significant changes
Body Weight (g) (d1) ([2]; mouse, in vivo, 25 mg/kg): 21.44 ± 1.45 g
Body Weight (g) (d30) ([2]; mouse, in vivo, 25 mg/kg): 21.87 ± 0.89 g
Body Weight (g) (d1) ([2]; mouse, in vivo, 50 mg/kg): 21.79 ± 1.37 g
Body Weight (g) (d30) ([2]; mouse, in vivo, 50 mg/kg): 22.00 ± 0.94 g
Body Weight (g) (d1) ([2]; mouse, in vivo, 100 mg/kg): 21.39 ± 1.24 g
Body Weight (g) (d30) ([2]; mouse, in vivo, 100 mg/kg): 21.88 ± 0.54 g
Spleen Index (%) ([3]; dose 13 mg/kg): 0.72 ± 0.07%
Thymus Index (%) ([3]; dose 13 mg/kg): 0.15 ± 0.07%
Spleen Index (%) ([3]; dose 26 mg/kg): 0.60 ± 0.15%
Thymus Index (%) ([3]; dose 26 mg/kg): 0.14 ± 0.01%
Spleen Index (%) ([3]; dose 52 mg/kg): 0.86 ± 0.25 %
Thymus Index (%) ([3]; dose 52 mg/kg): 0.12 ± 0.04%
